Values of other authors, collected in patent publication US20110257145A1, “METHOD OF TREATING NEUROLOGICAL DISEASES” (THE BOARD OF TRUSTEES OF THE UNIVERSITY OF ILLINOIS, priority 2008, published 2011).

Key:
[1] = tested on: fibroblasts from AD patients; settings: sub-nanomolar concentrations; cited from earlier work
mouse PKCα = mouse PKCα (Mus musculus, UniProt P20444); settings: PKC binding, value marked [52]; read-out: K1[nm] ± SEM; cited from earlier work
[2] = tested on: AD double-transgenic mouse; settings: in vivo; cited from earlier work

For `CCC/C=C/C=C/C(=O)O[C@H]1/C(=C/C(=O)OC)C[C@H]2C[C@H]([C@@H](C)O)OC(=O)C[C@H](O)C[C@@H]3C[C@H](OC(C)=O)C(C)(C)[C@](O)(C[C@@H]4C/C(=C/C(=O)OC)C[C@H](/C=C/C(C)(C)[C@]1(O)O2)O4)O3` [Bryostatin 1], the “secretion of the α-secretase product sAPPα” value [1] is listed as “dramatically enhances”, the Ki (mouse PKCα) is listed as 1.4 nM and the behavioral outcome [2] is listed as “improved”. For the same compound, the “brain Aβ40” value [2] was “decreased”, the “brain Aβ42” value [2] was “decreased” and the “rate of premature death” value [2] was “ameliorated”.
